In US11214803B2, “Modulators of YAP1 expression” (Ionis Pharmaceuticals, Inc., priority 2019, dated 2022):
Strand notation (5' to 3'): a small letter for the sugar, then the base; units joined by * are phosphorothioate-linked, units joined directly phosphodiester-linked; [ ] holds rarer units or linkages, { } end groups; capitals alone tell only the bases. e = 2'-O-(2-methoxyethyl) (MOE); k = constrained ethyl (cEt); [5mC] = 5-methylcytosine; d = 2'-deoxy (DNA); m = 2'-O-methyl

System: Yap1 mRNA
Assay: Antisense inhibition of human Yap1 in SNU-449 cells by modified oligonucleotides, single dose (Example 5, RTS36584)
Format: cell-based
In short: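 Values are % of untreated control: Yap1 mRNA by quantitative RT-PCR (RTS36584), normalized to RIBOGREEN total RNA. Oligonucleotides were dosed at 2,000 nM, free uptake, in SNU-449 cells, with roughly 48 h exposure before RNA isolation.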

[1] = Table 49, Yap1 mRNA level relative to untreated control, modified oligonucleotides targeting SEQ ID NO.: 1 and 2
[2] = Table 45, Yap1 mRNA as percent of untreated control, SNU-449 cells, single dose
[3] = Table 39, SNU-449 cells, 10,000 cells per well, free uptake, 2,000 nM oligonucleotide, approx. 48 hours, RTS36584, normalized to RIBOGREEN, Yap1 mRNA relative to untreated control
[4] = Table 40 (separate experiment), SNU-449 cells, 10,000 cells per well, free uptake, 2,000 nM oligonucleotide, approx. 48 hours, RTS36584, normalized to RIBOGREEN, Yap1 mRNA relative to untreated control
[5] = Table 41, SNU-449 cells, 10,000 cells per well, free uptake, 2,000 nM modified oligonucleotide, approximately 48 hours, RTS36584, normalized to RIBOGREEN, Yap1 mRNA relative to untreated control cells
[6] = Table 42 (separate experiment), SNU-449 cells, 10,000 cells per well, free uptake, 2,000 nM modified oligonucleotide, approximately 48 hours, RTS36584, normalized to RIBOGREEN, Yap1 mRNA relative to untreated control cells
[7] = Table 43 experiment, SNU-449 cells, 10,000 cells per well, free uptake, 2,000 nM, approximately 48 hours, RTS36584, Yap1 mRNA normalized to RIBOGREEN, relative to untreated control cells
[8] = Table 44 experiment, SNU-449 cells, 10,000 cells per well, free uptake, 2,000 nM, approximately 48 hours, RTS36584, Yap1 mRNA normalized to RIBOGREEN, relative to untreated control cells
[9] = Table 46, Yap1 mRNA as percent of untreated control, SNU-449 cells, single dose
[10] = Table 48, Yap1 mRNA level relative to untreated control, modified oligonucleotides targeting SEQ ID NO.: 1 and 2
[11] = Table 51, Yap1 mRNA remaining as percent of untreated control (UT), SNU-449 cells, single dose
[12] = Yap1 mRNA, percent of untreated control, modified oligonucleotides targeting SEQ ID NO: 1 and 2, Table 47

## 1198581 (antisense kA*kG*kT*dG*d[5mC]*dT*dT*dT*dG*dG*dA*dA*kG*kA*kT*e[5mC]) [Compound 1198581]
[1]
  YAP1 (% UT): 42 % UT

## 1198930 (kA*kT*dA*dG*dT*dG*d[5mC]*dT*dT*dT*dG*kG*dA*kA*dG*kA; antisense) [Compound 1198930]
[2]
  YAP1 (% UTC): 68 % UTC

## 1074461 (kG*kA*kA*dA*dT*dT*dG*dT*d[5mC]*dT*d[5mC]*dA*dT*kG*k[5mC]*k[5mC]) [Compound 1074461]
[3]
  YAP1 (% UTC): 7 % UTC
[4]
  YAP1 (% UTC): 9 % UTC
[5]
  YAP1 (% UTC): 12 % UTC
[6]
  YAP1 (% UTC): 11 % UTC
[7]
  YAP1 (% UTC): 11 % UTC
[8]
  YAP1 (% UTC): 7 % UTC
[2]
  YAP1 (% UTC): 9 % UTC
[9]
  YAP1 (% UT): 14 % UT
[10]
  YAP1 (% UT): 20 % UT
[1]
  YAP1 (% UT): 10 % UT
Table 50, Yap1 mRNA remaining as percent of untreated control (UT), SNU-449 cells, single dose
  YAP1 (% UT): 16 % UT
[11]
  YAP1 (% UT): 5 % UT
Table 52, Yap1 mRNA, modified oligonucleotides targeting SEQ ID NO: 1 and 2
  YAP1 (% UT): 15 % UT
[12]
  YAP1 (% UT): 5 % UT

## 1197277 (kA*k[5mC]*kT*dA*mA*dG*dT*dA*dA*dG*dG*dT*dT*kT*k[5mC]*k[5mC]) [Compound 1197277]
[11]
  YAP1 (% UT): 23 % UT

## 1197299 (kA*kG*kG*dA*mU*dG*d[5mC]*dA*dT*dG*dG*dT*dT*kT*kT*kT; antisense) [Compound 1197299]
[11]
  YAP1 (% UT): 41 % UT

## 1197251 (antisense kT*kT*kT*dG*mG*dA*dA*dG*dA*dT*d[5mC]*dT*dG*kA*kA*kA) [Compound 1197251]
[11]
  YAP1 (% UT): 74 % UT

## 1198327 (kT*kT*kT*dA*dG*dG*dA*dT*dG*d[5mC]*dA*dT*kG*eG*kT*eT; antisense) [Compound 1198327]
[10]
  YAP1 (% UT): 29 % UT

## 1198465 (antisense kA*kG*dT*dA*dT*dG*dT*dG*dG*d[5mC]*dA*eA*kT*eA*kA*eT) [Compound 1198465]
[7]
  YAP1 (% UTC): 68 % UTC

## 1198764 (kA*eG*kA*dT*dT*dT*dA*dG*dG*dA*dT*dG*e[5mC]*eA*kT*kG; antisense) [Compound 1198764]
[4]
  YAP1 (% UTC): 28 % UTC

## 1198741 (kT*eT*kA*d[5mC]*dA*dT*dT*dA*dG*dG*dA*dA*e[5mC]*eA*kA*kG; antisense) [Compound 1198741]
[4]
  YAP1 (% UTC): 60 % UTC

## 1095565 (antisense kT*kG*kA*dG*dG*dT*dA*dT*dA*dA*d[5mC]*dT*kG*eG*kG*e[5mC]) [Compound 1095565]
[1]
  YAP1 (% UT): 25 % UT

## 1198224 (kA*k[5mC]*dT*dT*dT*dT*dA*d[5mC]*dA*dT*dT*eA*eG*eG*kA*kA) [Compound 1198224]
[6]
  YAP1 (% UTC): 74 % UTC

## 1198324 (kA*kT*kA*dG*dT*dG*d[5mC]*dT*dT*dT*dG*dG*kA*eA*kG*eA; antisense) [Compound 1198324]
[10]
  YAP1 (% UT): 53 % UT

## 1198746 (kG*e[5mC]*kA*d[5mC]*dT*dT*dT*dT*dA*d[5mC]*dA*dT*eT*eA*kG*kG; antisense) [Compound 1198746]
[4]
  YAP1 (% UTC): 7 % UTC

## 1198747 (kA*eG*k[5mC]*dA*d[5mC]*dT*dT*dT*dT*dA*d[5mC]*dA*eT*eT*kA*kG; antisense) [Compound 1198747]
[4]
  YAP1 (% UTC): 38 % UTC

## 1197184 (antisense kA*kG*k[5mC]*dA*d[5mC]*dT*dT*dT*dT*dA*d[5mC]*dA*dT*kT*kA*kG) [Compound 1197184]
[12]
  YAP1 (% UT): 20 % UT

## 1198826 (kA*kA*d[5mC]*dA*d[5mC]*dT*dG*dA*dG*dG*dT*kA*eT*kA*eA*k[5mC]; antisense) [Compound 1198826]
[9]
  YAP1 (% UT): 64 % UT

## 1009325 (kA*kG*kA*dG*dT*dA*dT*dG*dT*dG*dG*d[5mC]*dA*kA*kT*kA; antisense) [Compound 1009325]
[12]
  YAP1 (% UT): 16 % UT

## 1198537 (k[5mC]*kT*dA*dA*dG*dT*dA*dA*dG*dG*dT*eT*kT*e[5mC]*k[5mC]*e[5mC]; antisense) [Compound 1198537]
[8]
  YAP1 (% UTC): 24 % UTC

## 1198543 (antisense kA*kT*kT*dG*dT*d[5mC]*dT*d[5mC]*dA*dT*dG*d[5mC]*k[5mC]*kT*kT*eA) [Compound 1198543]
[1]
  YAP1 (% UT): 15 % UT

## 1198794 (antisense kA*eA*k[5mC]*dT*dT*dT*dA*dA*dA*dG*dT*dG*eT*eA*kT*kG) [Compound 1198794]
[5]
  YAP1 (% UTC): 74 % UTC

## 1198321 (kT*kG*k[5mC]*dT*dT*dT*dG*dG*dA*dA*dG*dA*kT*e[5mC]*kT*eG; antisense) [Compound 1198321]
[10]
  YAP1 (% UT): 45 % UT

## 1076187 (kG*kA*kT*dT*dT*dA*dG*dG*dA*dT*dG*d[5mC]*dA*kT*kG*kG; antisense) [Compound 1076187]
[12]
  YAP1 (% UT): 17 % UT

## 1198408 (kG*dT*dG*d[5mC]*dT*dT*dT*dG*dG*dA*dA*kG*eA*kT*e[5mC]*kT; antisense) [Compound 1198408]
[3]
  YAP1 (% UTC): 41 % UTC

## 1198780 (antisense kT*eA*kA*dT*dA*dT*dT*dG*d[5mC]*dA*dA*dT*e[5mC]*eT*kG*kT) [Compound 1198780]
[4]
  YAP1 (% UTC): 80 % UTC

## 1198340 (kA*kA*k[5mC]*dT*d[5mC]*dT*dT*dA*dT*dA*dT*dG*kG*eT*kT*eT; antisense) [Compound 1198340]
[1]
  YAP1 (% UT): 123 % UT

## 1198859 (kA*k[5mC]*dT*d[5mC]*dT*dT*dA*dT*dA*dT*dG*kG*eT*kT*eT*kT; antisense) [Compound 1198859]
[12]
  YAP1 (% UT): 33 % UT

## 1095491 (antisense kA*k[5mC]*dT*dG*dA*dG*dG*dT*dA*dT*dA*kA*d[5mC]*kT*dG*kG) [Compound 1095491]
[2]
  YAP1 (% UTC): 65 % UTC

## 1198519 (kG*kT*dA*dA*dT*dA*dT*dT*dG*d[5mC]*dA*eA*kT*e[5mC]*kT*eG; antisense) [Compound 1198519]
[8]
  YAP1 (% UTC): 20 % UTC

## 1198377 (kA*dT*dG*dG*dA*dA*dA*dT*dT*dG*dT*k[5mC]*eT*k[5mC]*eA*kT; antisense) [Compound 1198377]
[3]
  YAP1 (% UTC): 30 % UTC

## 1198888 (kA*kG*dA*d[5mC]*dT*dA*dA*dG*dT*dA*dA*kG*eG*kT*eT*kT; antisense) [Compound 1198888]
[9]
  YAP1 (% UT): 51 % UT

## 1198703 (k[5mC]*kT*dT*dT*dA*dA*dA*dG*dT*dG*dT*dA*kT*eG*kT*e[5mC]; antisense) [Compound 1198703]
[6]
  YAP1 (% UTC): 42 % UTC

## 1198297 (kA*kT*kT*dA*dG*dA*dG*dT*dA*dT*dG*dT*kG*eG*k[5mC]*eA; antisense) [Compound 1198297]
[10]
  YAP1 (% UT): 8 % UT

## 1198584 (antisense TTAGGATGCATGGTTT; chemistry not fully specified) [Compound 1198584]
[1]
  YAP1 (% UT): 37 % UT

## 1198396 (kA*d[5mC]*dT*dT*dT*dT*dA*d[5mC]*dA*dT*dT*kA*eG*kG*eA*kA; antisense) [Compound 1198396]
[3]
  YAP1 (% UTC): 25 % UTC

## 1200796 (kT*kT*kA*dG*dA*mG*dT*dA*dT*dG*dT*dG*dG*k[5mC]*kA*kA; antisense) [Compound 1200796]
[11]
  YAP1 (% UT): 15 % UT

## 1198675 (antisense k[5mC]*kA*dG*dA*dT*dT*dT*dA*dG*dG*dA*dT*kG*e[5mC]*kA*eT) [Compound 1198675]
[5]
  YAP1 (% UTC): 35 % UTC

## 1198220 (kA*kA*d[5mC]*dA*d[5mC]*dT*dG*dA*dG*dG*dT*eA*eT*eA*kA*k[5mC]; antisense) [Compound 1198220]
[7]
  YAP1 (% UTC): 89 % UTC

## 1198522 (kT*kA*dT*dG*dT*dA*dA*dT*dA*dT*dT*eG*k[5mC]*eA*kA*eT; antisense) [Compound 1198522]
[8]
  YAP1 (% UTC): 37 % UTC

## 1198649 (kG*kA*dG*dG*dT*dA*dT*dA*dA*d[5mC]*dT*dG*kG*eG*k[5mC]*eA) [Compound 1198649]
[6]
  YAP1 (% UTC): 27 % UTC
